Like-named read-outs stand apart in the source and are kept apart here.
What was measured:
SMN Tudor domain = target: T1, SMN Tudor domain (Homo sapiens, UniProt Q16637); test: ITC binding to Tudor domain of SMN
T1 construct: SMN (aa 82–147); His (N, cleaved yes); made in house; host or cells: E. coli BL21 (DE3) Codon plus RIL
Excerpt: (§1) The coding DNA fragments of following Tudor domains were cloned into pET28-MHL vector: SMN (aa 82–147), UHRF1 (aa 126–285), SMNDC1 (aa 53–130), TDRD3 (aa 554–611), SND1 (aa 650–910), TDRD2 (aa 327–420), FXR1 (aa 2–132), PHF1 (aa 28–87), SGF29 (aa 115–293), JMJD2A (aa 897–1101), 53BP1 (aa 1483–1606), SETDB1 (aa 190–410), LBR (aa 1–67), ZGPAT (aa 120–271). The coding regions of chromodomain of CBX7 (aa 8–62), PWWP domain of DNMT3A (aa 275–417), WD40 repeats of WDR5 (aa 24–334) and CW domain of ZCWPW2 (aa 21–78) were also subcloned into pET28-MHL vector to generate N-terminally His-tagged fusion protein. The MBT repeats of L3MBTL1 (aa 200–522) and L3MBTL2 (aa 170–625) were subcloned into pET28GST-LIC vector to generate N-terminally GST-His-tagged fusion protein. All the plasmids were generated by ligase independent cloning (Vazyme Biotech, C112 or ABclonal Technology, RK21020). […] The proteins were further purified by Superdex75 or Superdex200 gel-filtration column (GE Healthcare) in a buffer containing 20 mM Tris-HCl, pH 7.5, 150 mM NaCl and 1 mM DTT. For crystallization experiments, purified proteins were concentrated to 18 mg/mL for SMN, 23 mg/mL for UHRF1 and 10 mg/mL for TDRD3 in the gel-filtration buffer. All the mutations were introduced with the QuikChange II XL site-directed mutagenesis kit (Stratagene, 200522) and confirmed by DNA sequencing. Mutant proteins were also expressed in E. coli BL21 (DE3) Codon plus RIL and purified using the same procedures described above. The molecular weight of all protein samples was measured by mass spectrometry.
(§2) For the ITC measurement, the concentrated proteins were diluted into 20 mM Tris-HCl, pH 7.5, 150 mM NaCl (ITC buffer); the lyophilized compounds were dissolved in the same buffer, and the pH value was adjusted by adding 2 M NaOH or 2 M HCl. The compounds that could not be dissolved in the ITC buffer were dissolved in DMSO with the accessible highest concentration. Compound concentrations were calculated from the mass and the volume of the solvent. For the ITC assay with compound dissolved in DMSO, the protein was diluted by ITC buffer containing same final concentration of DMSO. All measurements were performed in duplicate at 25 °C, using a VP-ITC (MicroCal, Inc.), an iTC-200 (MicroCal, Inc.), or a Nano-ITC (TA, Inc.) microcalorimeter. The protein with a concentration of 50–100 μM was placed in the cell chamber, and the compounds with a concentration of 0.5–2 mM in syringe was injected in 25, 20, or 20 successive injections with a spacing of 180, 150, or 120 s for VP-ITC, iTC-200, or Nano-ITC, respectively, as previously described[30]–[32]. iTC-200 or Nano-ITC data were consistent with those from the VP-ITC instrument, based on ITC results of SMN-compound 1 detected by using all the instruments. Control experiments were performed under identical conditions to determine the heat signals that arise from injection of the compounds into the buffer. Data were fitted using the single-site binding model within the Origin software 7.0 package (MicroCal, Inc.) or the independent model within the Nano-Analyze software package (TA, Inc.).

[1] = target: T2, UHRF1 tandem Tudor domain (TTD) (Homo sapiens, UniProt Q96T88); test: ITC binding to tandem Tudor domain of UHRF1
T2 construct: UHRF1 (aa 126–285); His (N, cleaved yes); made in house; host or cells: E. coli BL21 (DE3) Codon plus RIL
T2 sequence (Q96T88 126-285): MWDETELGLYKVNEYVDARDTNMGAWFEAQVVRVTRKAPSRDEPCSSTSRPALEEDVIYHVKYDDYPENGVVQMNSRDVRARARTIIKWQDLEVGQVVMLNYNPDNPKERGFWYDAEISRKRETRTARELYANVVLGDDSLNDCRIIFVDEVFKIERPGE
Excerpt: as §1, §2

SMN cage mutants = test: Biotin-Cmpd 1 pulldown from U2OS cell lysates, SMN cage mutants; assay type: binding, human; conditions: U2OS cell lysate, 20 μM biotin-Cmpd 1 (Fig. 2d)
Protocol: (§3) U2OS cells were lysed in RIPA buffer (140 mM NaCl, 10 mM Tris-HCl, pH 7.6, 1% Triton, 0.1% sodium deoxycholate, 1 mM EDTA) containing protease inhibitors (Roche, 05892791001). The cell lysate was incubated with 20 μM biotin-Cmpd 1 overnight at 4 °C, then 30 μL streptavidin beads (Thermo Fisher, 20353) was added and incubated at 4 °C for 1 h. The beads were then washed with RIPA buffer for 3 times, 10 min/time and loading buffer was added and boiled for 5 min for elution. The eluted samples were separated by SDS-PAGE for western blotting (SMN monoclonal antibody, BD Transduction Laboratories, 610646, clone No. 8, dilution of 1:1000; TDRD3 rabbit monoclonal antibody, Cell signaling, 5492, clone No. 5492, dilution of 1:1000; SND1 polyclonal antibody, Bethyl, A302-883A, dilution of 1:2000; RFP polyclonal antibody, Abcam, ab62341, dilution of 1:1000; GFP monoclonal antibody, Santa Cruz Biotechnology, sc-9996, dilution of 1:1000; Streptavidin-Horseradish Peroxidase (HRP), Invitrogen, SA10001, dilution of 1:5000) as previously described[52],[53]. For the competition analysis, 200 μM biotin-free compound 1 or compound 15 was added at the same time when the biotin-Cmpd 1 was incubated with the cell lysates.

SMN = target: T3, SMN (Homo sapiens, UniProt Q16637); test: Biotin-Cmpd 1 pulldown from U2OS cell lysates and western blotting, SMN; assay type: binding; conditions: U2OS cell lysate, 20 μM biotin-Cmpd 1, overnight 4 °C (Fig. 2c, Supplementary Fig. 6)
T3 construct: endogenous in cells; host or cells: U2OS
Protocol: as §3

TDRD3 = TDRD3 (Homo sapiens, UniProt Q9H7E2); test: Biotin-Cmpd 1 pulldown from U2OS cell lysates and western blotting, TDRD3; assay type: binding; design: endogenous in cells; host or cells: U2OS; conditions: U2OS cell lysate, 20 μM biotin-Cmpd 1 (Fig. 2c, Supplementary Fig. 6)
Chain of TDRD3 (Q9H7E2 whole entry): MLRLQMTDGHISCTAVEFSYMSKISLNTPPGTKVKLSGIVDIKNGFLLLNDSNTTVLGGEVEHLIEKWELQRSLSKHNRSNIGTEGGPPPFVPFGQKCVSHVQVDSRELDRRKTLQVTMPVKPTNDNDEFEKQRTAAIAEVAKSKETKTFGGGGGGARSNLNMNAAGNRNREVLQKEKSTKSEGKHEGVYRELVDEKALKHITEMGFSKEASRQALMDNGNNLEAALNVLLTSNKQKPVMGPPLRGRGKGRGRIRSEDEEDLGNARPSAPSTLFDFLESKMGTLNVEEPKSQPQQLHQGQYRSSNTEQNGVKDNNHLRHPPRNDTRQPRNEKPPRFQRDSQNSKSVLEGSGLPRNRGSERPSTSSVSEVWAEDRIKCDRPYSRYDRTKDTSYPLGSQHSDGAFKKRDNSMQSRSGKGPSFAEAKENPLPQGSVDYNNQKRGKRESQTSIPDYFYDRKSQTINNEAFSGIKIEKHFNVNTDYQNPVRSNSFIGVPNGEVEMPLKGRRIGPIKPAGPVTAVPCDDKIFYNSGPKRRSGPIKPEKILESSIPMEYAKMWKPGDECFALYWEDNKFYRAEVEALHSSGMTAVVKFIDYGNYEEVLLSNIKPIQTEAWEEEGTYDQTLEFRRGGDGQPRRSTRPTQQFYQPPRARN
Protocol: as §3

SND1 = target: T4, SND1 (Homo sapiens, UniProt Q7KZF4); test: Biotin-Cmpd 1 pulldown from U2OS cell lysates and western blotting, SND1; assay type: binding; conditions: U2OS cell lysate, 20 μM biotin-Cmpd 1 (Fig. 2c, Supplementary Fig. 6)
T4 construct: endogenous in cells; host or cells: U2OS
T4 sequence (Q7KZF4 whole entry): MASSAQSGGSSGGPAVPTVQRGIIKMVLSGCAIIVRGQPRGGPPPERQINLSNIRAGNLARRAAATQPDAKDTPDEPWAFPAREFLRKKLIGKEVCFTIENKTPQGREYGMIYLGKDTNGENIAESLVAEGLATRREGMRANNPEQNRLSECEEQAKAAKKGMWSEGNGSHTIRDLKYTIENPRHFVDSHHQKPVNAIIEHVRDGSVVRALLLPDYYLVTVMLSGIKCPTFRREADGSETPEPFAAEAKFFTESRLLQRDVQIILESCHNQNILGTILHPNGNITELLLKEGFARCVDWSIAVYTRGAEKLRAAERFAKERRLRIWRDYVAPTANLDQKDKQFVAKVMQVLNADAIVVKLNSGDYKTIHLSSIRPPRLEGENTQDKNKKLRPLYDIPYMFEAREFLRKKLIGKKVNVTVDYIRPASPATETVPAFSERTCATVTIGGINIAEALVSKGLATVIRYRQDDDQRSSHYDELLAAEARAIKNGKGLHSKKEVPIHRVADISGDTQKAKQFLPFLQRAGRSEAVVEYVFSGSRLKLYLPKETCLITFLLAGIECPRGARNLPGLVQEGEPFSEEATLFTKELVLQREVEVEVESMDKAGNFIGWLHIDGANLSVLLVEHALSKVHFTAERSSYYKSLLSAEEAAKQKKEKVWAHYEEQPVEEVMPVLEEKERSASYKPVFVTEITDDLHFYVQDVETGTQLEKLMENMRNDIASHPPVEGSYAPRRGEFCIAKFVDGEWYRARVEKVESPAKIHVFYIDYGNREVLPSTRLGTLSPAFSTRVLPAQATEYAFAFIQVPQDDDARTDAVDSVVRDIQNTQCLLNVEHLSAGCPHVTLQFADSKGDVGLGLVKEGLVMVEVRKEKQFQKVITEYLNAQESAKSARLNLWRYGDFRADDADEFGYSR
Protocol: as §3

[2] = target: R1810me2s-POLR2A (Homo sapiens) (UniProt P24928); conditions: cited from earlier work
[3] = ITC, Tudor domain of SMN wild type, 25 °C
[4] = Supplementary Fig. 12, read-out: Kd, binding affinity (determined by ITC) of different compounds to SMN
[5] = ITC, Tudor domain of SMN wild type, 25 °C, read-out: Kd (SMN)

Molecule | Kd (SMN) (SMN Tudor domain; [3]) | Kd (SMN Tudor domain; [4]) [µM] | Kd (UHRF1) [1] | other results
CN1CC[C@H](N)c2ccccc21 [Compound 15, (S)-1-methyl-1,2,3,4-tetrahydroquinolin-4-aminium] | No binding | > 244 | No binding | –
Nc1cccc2cccnc12 [Compound 8, quinolin-8-amine] | No binding | – | No binding | Kd (SMN Tudor domain): > 244 µM
N=c1c2c(n(Cc3ccc(F)cc3)c3c1CCC3)CCC2 [Compound 4, 4-(4-fluorobenzyl)-2,3,4,5,6,7-hexahydrodicyclopenta[b,e]pyridin-8(1H)-imine] | – | – | No binding | Kd (SMN Tudor domain; [5]): 13 ± 1 µM
CN[C@@H]1CCc2ccccc21 [Compound 9, (R)-N-methyl-2,3-dihydro-1H-inden-1-aminium] | No binding | > 244 | No binding | –
N=c1c2c(n(CC(=O)NCCOCCOCCOCCNC(=O)CCCC[C@@H]3SC[C@@H]4NC(=O)N[C@@H]43)c3c1CCC3)CCC2 [biotin-Cmpd 1] | – | – | – | pulldown of SMN cage mutants from cell lysates (SMN cage mutants): could not efficiently pull down; Kd (SMN Tudor domain; Supplementary Figs. 2, 4 and 11a (VP-ITC), read-out: Kd, ITC binding curve, Tudor domain of SMN): 87 ± 12 µM; pulldown of SMN from cell lysates (SMN): efficiently captured; pulldown of SMN from cell lysates (SMN; listed as Biotin-Cmpd 1): selectively chemiprecipates SMN; pulldown of TDRD3 from cell lysates (TDRD3): neither TDRD3 nor SND1 could be detected; pulldown of SND1 from cell lysates (SND1): neither TDRD3 nor SND1 could be detected
CN1CC[C@H](CN)c2ccccc21 [Compound 16, (S)-(1-methyl-1,2,3,4-tetrahydroquinolin-4-yl)methanaminium] | No binding | > 244 | No binding | –
N=C(N)c1ccc(N)cc1 [Compound 19, 4-aminobenzimidamide] | No binding | > 244 | No binding | –
SMN Tudor (from UniProt Q16637) | – | – | – | Kd [2]: 175 µM
Cn1ccc(=N)cc1 [Compound 20, 1-methylpyridin-4(1H)-imine] | No binding | > 244 | No binding | –
NC[C@H]1CCc2ccccc21 [Compound 11, (S)-(2,3-dihydro-1H-inden-1-yl)methanaminium] | No binding | > 244 | No binding | –
CCCCc1c(CCC)c(=N)c2ccccc2n1C [Compound 5, 2-butyl-1-methyl-3-propylquinolin-4(1H)-imine] | – | – | No binding | Kd (SMN Tudor domain; [5]): 12 ± 1 µM
Nc1cccc2ccsc12 [Compound 12, benzo[b]thiophen-7-amine] | No binding | > 244 | No binding | –

The next lines start with results.

Kd (SMN) (SMN Tudor domain; [3]) | Kd (SMN Tudor domain; [4]) [µM] | Kd (UHRF1) [1] | Molecule | other results
No binding | > 244 | No binding | C[C@H]1CCc2ccccc2[C@@H]1N [Compound 13, (1R,2S)-2-methyl-1,2,3,4-tetrahydronaphthalen-1-aminium] | –
– | – | No binding | CCOC(=O)Cn1c2c(c(=N)c3c1CCC3)CCC2 [Compound 3, ethyl 2-(8-imino-2,3,5,6,7,8-hexahydrodicyclopenta[b,e]pyridin-4(1H)-yl)acetate] | Kd (SMN Tudor domain; [5]): 31 ± 2 µM
No binding | > 244 | No binding | C[C@H]1Cc2ccccc2[C@@H]1N [Compound 10, (1R,2S)-2-methyl-2,3-dihydro-1H-inden-1-aminium] | –
No binding | > 244 | No binding | C[C@H]1CC[C@@H](N)c2ccccc21 [Compound 14, (1R,4S)-4-methyl-1,2,3,4-tetrahydronaphthalen-1-aminium] | –
No binding | > 244 | No binding | CCN(CC)c1ccc(C(=N)N)cc1 [Compound 18, 4-(diethylamino)benzimidamide] | –
No binding | > 244 | No binding | Nc1cccc2ocnc12 [Compound 7, benzo[d]oxazol-4-amine] | –
– | – | Weak binding | Cc1cc(=N)c2ccccc2n1C [Compound 6, 1,2-dimethylquinolin-4(1H)-imine] | Kd (SMN Tudor domain; [5]): 12 ± 2 µM
No binding | > 244 | No binding | N=C(N)N1CCC(Cc2ccccc2)CC1 [Compound 17, 4-benzylpiperidine-1-carboximidamide] | –
